This is an account of results in EP4501917A1, “3,4-DIHYDROQUINOXALINE-2-CARBOXIMIDE DERIVATIVE COMPOUND AND PHARMACEUTICAL COMPOSITION COMPRISING SAME FOR PREVENTING OR TREATING CANCER DISEASE” (Daegu-Gyeongbuk Medical Innovation Foundation, priority 2022, dated 2023).

For assay [1], the target named is T1, HDAC8 (Homo sapiens, UniProt Q9BY41).
T1 construct: purchased BPS bioscience
T1 sequence (Q9BY41 1-377): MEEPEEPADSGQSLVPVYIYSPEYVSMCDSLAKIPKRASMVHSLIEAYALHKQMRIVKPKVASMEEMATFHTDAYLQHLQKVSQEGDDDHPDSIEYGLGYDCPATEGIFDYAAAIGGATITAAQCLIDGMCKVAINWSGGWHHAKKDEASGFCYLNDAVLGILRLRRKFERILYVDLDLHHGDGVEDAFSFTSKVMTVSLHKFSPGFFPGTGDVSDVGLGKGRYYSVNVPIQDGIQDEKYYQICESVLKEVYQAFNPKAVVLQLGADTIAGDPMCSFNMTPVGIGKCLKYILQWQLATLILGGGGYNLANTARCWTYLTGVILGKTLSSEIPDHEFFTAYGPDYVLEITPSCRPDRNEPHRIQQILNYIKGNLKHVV
Nature of the assay: HDAC8 inhibitory activity analysis (in vitro), RFU analysis, HDAC Fluorogenic assay kit. The settings on record: compound final concentration 10 µM; HDAC substrate 2A 20 µM; positive control (1% DMSO) set to 100, lower = more inhibition. In kind it is biochemical.
Protocol: The compound of the Example was diluted to 1 mM (1% DMSO concentration) using DMSO to obtain a final concentration of 10 µM, and prepared by diluting 1/10 with assay buffer. In a 96-well black round-bottom plate, 5 µL of the diluted compound of the Example, 5 µL of the diluted HDAC substrate 2A, 5 µL of BSA (1 mg/mL), 5 µL of the HDAC8 enzyme diluted to an appropriate concentration, and 30 µL of assay buffer were added, and the enzyme reaction was performed at 37°C for 30 minutes. […] Afterwards, 50 µL of 2X HDAC developer was added to each well. After reacting for 15 minutes at room temperature, the fluorescence values at excitation wavelengths of 350-380 nm and emission wavelengths of 440-460 nm were measured using a microplate reader (Synergy Neo).

Assay [2] deals with T2, HDAC10 (Homo sapiens, UniProt Q969S8).
T2 sequence (Q969S8 1-669): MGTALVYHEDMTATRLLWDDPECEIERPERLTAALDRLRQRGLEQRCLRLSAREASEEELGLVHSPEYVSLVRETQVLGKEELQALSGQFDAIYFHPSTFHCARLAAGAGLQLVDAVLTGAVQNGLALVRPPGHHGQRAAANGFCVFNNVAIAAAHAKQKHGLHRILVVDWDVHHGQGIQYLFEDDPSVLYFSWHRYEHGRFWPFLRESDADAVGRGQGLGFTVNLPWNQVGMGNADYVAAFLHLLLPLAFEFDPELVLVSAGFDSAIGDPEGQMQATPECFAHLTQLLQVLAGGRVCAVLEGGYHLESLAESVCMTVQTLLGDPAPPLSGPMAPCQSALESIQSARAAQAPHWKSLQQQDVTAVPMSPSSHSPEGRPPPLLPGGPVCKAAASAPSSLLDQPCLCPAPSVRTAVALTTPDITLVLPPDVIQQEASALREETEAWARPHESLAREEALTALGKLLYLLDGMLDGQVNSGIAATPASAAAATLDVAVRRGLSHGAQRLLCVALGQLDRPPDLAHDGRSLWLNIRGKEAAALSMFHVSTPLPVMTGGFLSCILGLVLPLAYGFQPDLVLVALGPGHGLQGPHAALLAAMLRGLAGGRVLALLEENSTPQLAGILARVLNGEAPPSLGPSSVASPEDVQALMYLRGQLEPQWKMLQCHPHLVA
Put plainly: Selective HDAC inhibition, HDAC Fluorogenic assay kit. The following applies: final concentration 10 µM; HDAC substrate 3 200 µM; positive control (1% DMSO) set to 100.
Protocol: (§1) For analysis, HDAC substrate 3 was diluted in buffer to a concentration of 200 µM and used in HDAC 1, 2, 3, 6, and 10 assays, HDAC substrate 2A was diluted in buffer to a concentration of 200 µM and used in HDAC 4, 7, 9, and 11 assays, HDAC substrate 2A was diluted in buffer to a concentration of 20 µM and used in HDAC 8 assays. For the HDAC 11 assay, a dedicated buffer included in the kit was used separately, and the same buffer was used for the remaining assays. The compound of the Example was diluted to 1 mM (1% DMSO concentration) using DMSO to obtain a final concentration of 10 µM, and prepared by diluting 1/10 with assay buffer. In a 96-well black round-bottom plate, 5 µL of the diluted compound of the Example, 5 µL of the diluted HDAC substrate, 5 µL of BSA (1 mg/ml), 5 µL of the HDAC enzyme diluted to the appropriate concentration, and 30 µL of assay buffer were added, and the enzyme reaction was performed at 37°C for 30 minutes. […] Afterwards, 50 µL of 2X HDAC developer was added to each well. After reacting for 15 minutes at room temperature, the fluorescence values at excitation wavelengths of 350-380 nm and emission wavelengths of 440-460 nm were measured using a microplate reader (Synergy Neo).

Assay [3] addresses T1, HDAC8. Described as above. The assay is classed as biochemical. The following applies: final concentration 10 µM; HDAC substrate 2A 20 µM; positive control (1% DMSO) set to 100; read-out: HDAC8 enzyme activity (%).
Protocol: as §1
The target in assay [4] is HDAC9 (Homo sapiens, UniProt Q9UKV0). The assay is described as above. The following applies: read-out: HDAC9 enzyme activity (%).
Protocol: as §1
Assay [5] addresses T3, HDAC6 (Homo sapiens, UniProt Q9UBN7).
T3 sequence (Q9UBN7 1-1215): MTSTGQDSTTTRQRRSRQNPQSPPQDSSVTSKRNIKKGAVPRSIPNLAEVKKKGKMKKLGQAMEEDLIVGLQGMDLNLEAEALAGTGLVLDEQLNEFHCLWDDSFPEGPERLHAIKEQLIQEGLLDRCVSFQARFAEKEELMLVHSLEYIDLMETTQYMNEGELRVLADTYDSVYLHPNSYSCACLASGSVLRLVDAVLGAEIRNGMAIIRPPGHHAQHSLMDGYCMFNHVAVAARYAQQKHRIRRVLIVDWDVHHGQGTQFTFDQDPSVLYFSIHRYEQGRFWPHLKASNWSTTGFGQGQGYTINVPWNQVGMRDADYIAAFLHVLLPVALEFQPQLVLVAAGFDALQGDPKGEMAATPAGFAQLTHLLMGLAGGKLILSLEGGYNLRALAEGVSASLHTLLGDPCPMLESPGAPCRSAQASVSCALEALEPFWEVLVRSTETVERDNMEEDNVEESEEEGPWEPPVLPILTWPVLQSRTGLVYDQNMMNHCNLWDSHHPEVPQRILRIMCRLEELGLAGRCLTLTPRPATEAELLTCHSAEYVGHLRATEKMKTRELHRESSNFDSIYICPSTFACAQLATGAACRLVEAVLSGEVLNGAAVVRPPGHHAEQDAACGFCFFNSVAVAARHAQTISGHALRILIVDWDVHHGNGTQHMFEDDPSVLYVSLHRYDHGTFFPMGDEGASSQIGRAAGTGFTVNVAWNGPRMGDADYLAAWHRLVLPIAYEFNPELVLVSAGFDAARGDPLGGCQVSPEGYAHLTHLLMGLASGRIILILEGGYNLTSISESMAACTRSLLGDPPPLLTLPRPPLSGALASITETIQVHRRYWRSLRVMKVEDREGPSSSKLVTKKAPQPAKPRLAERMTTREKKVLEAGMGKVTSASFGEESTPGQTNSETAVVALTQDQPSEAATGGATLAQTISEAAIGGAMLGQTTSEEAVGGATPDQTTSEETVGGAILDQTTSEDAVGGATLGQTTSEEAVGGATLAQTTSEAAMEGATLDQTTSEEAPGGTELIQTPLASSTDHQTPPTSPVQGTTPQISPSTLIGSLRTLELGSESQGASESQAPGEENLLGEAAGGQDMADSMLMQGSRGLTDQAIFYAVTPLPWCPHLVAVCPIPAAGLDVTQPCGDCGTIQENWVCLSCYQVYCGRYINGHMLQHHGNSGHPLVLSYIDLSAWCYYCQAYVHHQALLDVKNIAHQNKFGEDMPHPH
The description is as above. The following applies: final concentration 10 µM; HDAC substrate 3 200 µM; positive control (1% DMSO) set to 100.
Protocol: as §1

Assay [6] has as its target HDAC2 (Homo sapiens, UniProt Q92769). The description is as above. The following applies: final concentration 10 µM; HDAC substrate 3 200 µM; positive control (1% DMSO) set to 100.
Protocol: as §1
Assay [7] concerns the target HDAC4 (Homo sapiens, UniProt P56524). The description is as above. The settings on record: read-out: HDAC4 enzyme activity (%).
Protocol: as §1
Assay [8] concerns the target T4, HDAC11 (Homo sapiens, UniProt Q96DB2).
T4 sequence (Q96DB2 1-347): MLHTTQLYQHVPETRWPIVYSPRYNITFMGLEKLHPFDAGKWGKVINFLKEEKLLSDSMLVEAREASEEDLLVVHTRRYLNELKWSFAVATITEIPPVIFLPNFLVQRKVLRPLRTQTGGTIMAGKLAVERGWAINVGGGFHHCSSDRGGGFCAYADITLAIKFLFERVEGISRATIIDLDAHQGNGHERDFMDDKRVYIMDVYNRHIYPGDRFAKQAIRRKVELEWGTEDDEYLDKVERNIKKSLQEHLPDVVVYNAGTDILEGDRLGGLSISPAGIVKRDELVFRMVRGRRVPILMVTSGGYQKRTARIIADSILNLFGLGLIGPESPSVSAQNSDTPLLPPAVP
Described as above. The following applies: read-out: HDAC11 enzyme activity (%).
Protocol: as §1

The target in assay [9] is HDAC1 (Homo sapiens, UniProt Q13547). The description is as above. The following applies: final concentration 10 µM; HDAC substrate 3 200 µM; positive control (1% DMSO) set to 100.
Chain of HDAC1 (Q13547 whole entry): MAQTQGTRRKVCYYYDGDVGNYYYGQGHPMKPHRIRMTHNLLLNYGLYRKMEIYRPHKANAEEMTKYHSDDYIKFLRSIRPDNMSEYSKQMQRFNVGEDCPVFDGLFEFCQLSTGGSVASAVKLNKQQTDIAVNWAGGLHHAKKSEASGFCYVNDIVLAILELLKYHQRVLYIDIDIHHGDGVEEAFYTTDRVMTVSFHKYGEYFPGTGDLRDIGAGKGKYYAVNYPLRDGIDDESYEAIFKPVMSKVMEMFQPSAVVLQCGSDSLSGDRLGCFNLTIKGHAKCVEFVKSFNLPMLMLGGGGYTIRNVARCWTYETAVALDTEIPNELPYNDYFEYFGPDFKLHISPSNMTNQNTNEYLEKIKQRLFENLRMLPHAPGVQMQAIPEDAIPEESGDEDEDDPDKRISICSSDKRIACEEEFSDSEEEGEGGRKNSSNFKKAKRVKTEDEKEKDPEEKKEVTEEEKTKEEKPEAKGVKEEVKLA
Protocol: as §1

Chain of HDAC4 (P56524 whole entry): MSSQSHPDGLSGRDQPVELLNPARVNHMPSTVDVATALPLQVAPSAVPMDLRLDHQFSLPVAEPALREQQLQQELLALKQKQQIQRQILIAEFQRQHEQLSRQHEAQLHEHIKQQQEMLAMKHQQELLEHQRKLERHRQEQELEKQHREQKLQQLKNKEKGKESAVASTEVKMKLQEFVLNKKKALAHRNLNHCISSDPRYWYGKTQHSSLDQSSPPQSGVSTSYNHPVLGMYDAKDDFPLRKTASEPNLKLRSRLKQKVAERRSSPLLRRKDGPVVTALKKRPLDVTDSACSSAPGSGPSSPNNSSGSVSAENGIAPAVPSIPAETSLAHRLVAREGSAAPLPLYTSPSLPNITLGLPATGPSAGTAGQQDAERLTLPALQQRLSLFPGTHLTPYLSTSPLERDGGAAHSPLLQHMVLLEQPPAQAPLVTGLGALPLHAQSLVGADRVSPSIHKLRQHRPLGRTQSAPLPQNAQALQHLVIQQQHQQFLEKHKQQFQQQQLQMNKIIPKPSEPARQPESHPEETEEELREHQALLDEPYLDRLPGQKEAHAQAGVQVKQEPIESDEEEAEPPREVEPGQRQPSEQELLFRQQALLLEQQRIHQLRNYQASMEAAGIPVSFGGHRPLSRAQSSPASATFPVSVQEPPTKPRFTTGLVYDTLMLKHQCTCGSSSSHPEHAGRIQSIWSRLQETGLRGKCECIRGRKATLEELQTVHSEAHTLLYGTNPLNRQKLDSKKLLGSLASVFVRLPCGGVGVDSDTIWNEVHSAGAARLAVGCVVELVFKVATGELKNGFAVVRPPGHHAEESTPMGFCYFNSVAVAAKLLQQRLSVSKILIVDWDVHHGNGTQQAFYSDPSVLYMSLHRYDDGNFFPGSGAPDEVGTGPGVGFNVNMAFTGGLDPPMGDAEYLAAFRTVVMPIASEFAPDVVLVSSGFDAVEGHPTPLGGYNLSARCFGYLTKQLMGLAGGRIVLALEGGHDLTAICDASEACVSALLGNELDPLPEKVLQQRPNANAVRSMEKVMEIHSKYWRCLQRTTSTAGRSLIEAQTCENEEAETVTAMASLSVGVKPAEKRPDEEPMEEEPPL
Chain of HDAC2 (Q92769 whole entry): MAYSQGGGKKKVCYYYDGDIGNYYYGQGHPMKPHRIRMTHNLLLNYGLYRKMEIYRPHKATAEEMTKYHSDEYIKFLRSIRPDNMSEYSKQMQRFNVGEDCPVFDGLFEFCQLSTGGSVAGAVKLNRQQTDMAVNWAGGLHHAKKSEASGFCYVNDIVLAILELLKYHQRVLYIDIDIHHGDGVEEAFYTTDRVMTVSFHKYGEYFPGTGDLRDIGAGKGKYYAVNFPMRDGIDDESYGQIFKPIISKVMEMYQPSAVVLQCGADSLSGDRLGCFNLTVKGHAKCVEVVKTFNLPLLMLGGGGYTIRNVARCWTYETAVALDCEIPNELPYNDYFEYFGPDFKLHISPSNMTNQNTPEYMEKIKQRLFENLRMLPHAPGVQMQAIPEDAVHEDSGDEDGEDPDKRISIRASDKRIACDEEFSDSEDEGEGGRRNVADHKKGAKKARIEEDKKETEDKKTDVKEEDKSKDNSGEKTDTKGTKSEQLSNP
Chain of HDAC9 (Q9UKV0 whole entry): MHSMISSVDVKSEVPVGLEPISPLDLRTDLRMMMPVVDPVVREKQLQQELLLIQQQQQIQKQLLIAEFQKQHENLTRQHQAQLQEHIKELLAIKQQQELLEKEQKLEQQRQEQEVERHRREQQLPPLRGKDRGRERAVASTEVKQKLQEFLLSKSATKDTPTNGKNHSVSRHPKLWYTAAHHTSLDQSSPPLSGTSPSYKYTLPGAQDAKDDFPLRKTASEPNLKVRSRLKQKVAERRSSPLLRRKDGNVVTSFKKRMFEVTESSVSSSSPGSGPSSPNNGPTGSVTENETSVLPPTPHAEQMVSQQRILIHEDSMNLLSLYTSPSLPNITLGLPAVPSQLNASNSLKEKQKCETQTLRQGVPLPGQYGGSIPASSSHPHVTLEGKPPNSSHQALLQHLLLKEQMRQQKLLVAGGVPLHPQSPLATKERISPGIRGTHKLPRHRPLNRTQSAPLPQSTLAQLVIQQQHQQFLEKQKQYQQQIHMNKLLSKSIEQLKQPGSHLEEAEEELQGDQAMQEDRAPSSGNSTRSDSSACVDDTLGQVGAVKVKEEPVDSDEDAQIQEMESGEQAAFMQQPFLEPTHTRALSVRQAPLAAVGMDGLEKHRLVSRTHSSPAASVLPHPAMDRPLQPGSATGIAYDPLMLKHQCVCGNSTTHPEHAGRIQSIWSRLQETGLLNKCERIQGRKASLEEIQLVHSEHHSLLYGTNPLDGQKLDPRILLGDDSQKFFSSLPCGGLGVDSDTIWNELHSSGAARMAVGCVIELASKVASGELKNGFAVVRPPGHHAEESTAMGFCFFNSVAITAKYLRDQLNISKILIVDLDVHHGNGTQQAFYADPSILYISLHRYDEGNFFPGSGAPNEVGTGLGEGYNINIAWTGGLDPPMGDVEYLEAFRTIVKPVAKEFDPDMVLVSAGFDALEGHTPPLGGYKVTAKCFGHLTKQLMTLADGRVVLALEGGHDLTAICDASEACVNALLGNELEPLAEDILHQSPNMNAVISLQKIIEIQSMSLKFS

Turning to `CC(/C=C/C(=O)NO)=C\[C@@H](C)C(=O)c1ccc(N(C)C)cc1` [TSA, Trichostatin A, reference compound], the “RFU (%)” value in assay [1] was found to be 13.83%. For the same molecule, the “HDAC10 enzyme activity (%)” value in [2] was 1.21%. In addition, the remaining activity at 10 µM in assay [3] was determined as 11.1%; in [4] it was 21.5%; in [7], 18.8%; in [8], 59.1%. For the same molecule, the “HDAC6 enzyme activity (%)” value in [5] turned out to be 1.11%. Moreover, in assay [6], the “HDAC2 enzyme activity (%)” value is 0.70%. For the same molecule, in [9], the “HDAC1 enzyme activity (%)” value is recorded as 1.22%.
